# Laboratory results from publication PMC9777073, “A Fenchone Derivative Effectively Abrogates Joint Damage Following Post-Traumatic Osteoarthritis in Lewis Rats” (Cells, 2022).
# Molecular target: T1, cannabinoid receptor 1 (CB1) (Homo sapiens, UniProt P21554)
# T1 construct: gene CNR1
# Test: cell-based
# Set-up: species or system CHO-K1
# Settings: read-out: Antagonist IC50 RC50
# Text: For agonist analysis, we monitored “evaluation of potency” (EC50) and % efficacy (Max response), which were reflected by increased intracellular cAMP levels detected in cAMP Hunter™ Gs cell lines (CHO-K1 lines) overexpressing human CNR1 (i.e., gene encoding CB1) or CNR2 (i.e., gene encoding CB2). Alternatively, antagonist activity (i.e., inhibitory concentration or IC50) utilized a cAMP Hunter™ Gi cell lines (CHO-K1 lines), detecting an intracellular reduction in cAMP levels in cells overexpressing CNR1 and CNR2. These cell lines are designed to be used in conjunction with the HitHunter® cAMP Assay Detection Kit. Specifically, for agonist assay, cells were subjected to positive controls, known to activate the increase in cAMP for both receptors (agonist control 20 µM Forskolin for CB1 and 25 µM Forskolin for CB2). […] Prior to testing the cell, plating media were exchanged with 10 uL of Assay buffer (HBSS + 10 mM HEPES). Agonist results are expressed as percent efficacy relative to the maximum response of the control ligand (%Effc or EC50), while antagonist results are expressed as percent inhibition of the control ligand (IC50) normalized to the unantagonized vehicle.
# T1 sequence (P21554 whole entry): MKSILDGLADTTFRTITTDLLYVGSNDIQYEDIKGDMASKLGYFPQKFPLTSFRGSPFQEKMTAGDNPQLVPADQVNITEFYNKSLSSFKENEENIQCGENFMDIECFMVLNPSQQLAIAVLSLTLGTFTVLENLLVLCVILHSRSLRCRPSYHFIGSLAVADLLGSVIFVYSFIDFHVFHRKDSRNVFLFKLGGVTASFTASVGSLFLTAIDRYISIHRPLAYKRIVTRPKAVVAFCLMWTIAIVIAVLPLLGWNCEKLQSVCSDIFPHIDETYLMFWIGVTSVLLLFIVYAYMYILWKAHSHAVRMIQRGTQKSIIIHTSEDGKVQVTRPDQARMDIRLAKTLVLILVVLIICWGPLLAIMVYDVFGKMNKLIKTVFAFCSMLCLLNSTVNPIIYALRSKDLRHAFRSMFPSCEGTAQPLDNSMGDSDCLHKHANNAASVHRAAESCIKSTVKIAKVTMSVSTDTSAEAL
smiles,measurement,value
Cc1c(C(=O)NN2CCOCC2)nn(-c2ccc(Cl)cc2Cl)c1-c1ccc(I)cc1 [AM281],IC50,22.4 nM
